Where two headings read alike, the source gives them in different places.
How the values were obtained:
Assay in all cases: Herbicidal activity for paddy test
Assay type in all cases: in vivo
ECHOR = settings: for pest or weed control at 2 g/ha: 0.002 kg/ha; for pest or weed control at 8 g/ha: 0.008 kg/ha; for pest or weed control at 31 g/ha: 0.031 kg/ha; for pest or weed control at 125 g/ha: 0.125 kg/ha; for pest or weed control at 500 g/ha: 0.500 kg/ha
Outline: (§1)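 Scores are visual estimates of percent control (0, no effect; 100, plants completely killed), recorded on species planted in furrows in sterilized sandy loam held in 115 cm^2 paddy pots.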

MOOVA = settings: for pest or weed control at 2 g/ha: 0.002 kg/ha; for pest or weed control at 8 g/ha: 0.008 kg/ha; for pest or weed control at 31 g/ha: 0.031 kg/ha; for pest or weed control at 125 g/ha: 0.125 kg/ha; for pest or weed control at 500 g/ha: 0.500 kg/ha
Outline: as §1

ORYSA = settings: for plant injury at 2 g/ha: 0.002 kg/ha; for plant injury at 8 g/ha: 0.008 kg/ha; for plant injury at 31 g/ha: 0.031 kg/ha; for plant injury at 125 g/ha: 0.125 kg/ha; for plant injury at 500 g/ha: 0.500 kg/ha
Outline: as §1

SAGPY = settings: for pest or weed control at 2 g/ha: 0.002 kg/ha; for pest or weed control at 8 g/ha: 0.008 kg/ha; for pest or weed control at 31 g/ha: 0.031 kg/ha; for pest or weed control at 125 g/ha: 0.125 kg/ha; for pest or weed control at 500 g/ha: 0.500 kg/ha
Outline: as §1

SCPJU = settings: for pest or weed control at 2 g/ha: 0.002 kg/ha; for pest or weed control at 8 g/ha: 0.008 kg/ha; for pest or weed control at 31 g/ha: 0.031 kg/ha; for pest or weed control at 125 g/ha: 0.125 kg/ha; for pest or weed control at 500 g/ha: 0.500 kg/ha
Outline: as §1

[1] = 3 Leaf, read-out: Herbicidal activity, ORYSA (3 Leaf)
[2] = seed, read-out: Herbicidal activity, ORYSA (seed)

Row | SMILES | pest or weed control at 2 g/ha (ECHOR) [%] | pest or weed control at 8 g/ha (ECHOR) [%] | pest or weed control at 31 g/ha (ECHOR) [%] | pest or weed control at 125 g/ha (ECHOR) [%] | pest or weed control at 500 g/ha (ECHOR) [%] | pest or weed control at 2 g/ha (MOOVA) [%] | pest or weed control at 8 g/ha (MOOVA) [%] | pest or weed control at 31 g/ha (MOOVA) [%] | pest or weed control at 125 g/ha (MOOVA) [%] | pest or weed control at 500 g/ha (MOOVA) [%] | plant injury at 2 g/ha (ORYSA; [1]) [%] | plant injury at 8 g/ha (ORYSA; [1]) [%] | plant injury at 31 g/ha (ORYSA; [1]) [%] | plant injury at 125 g/ha (ORYSA; [1]) [%] | plant injury at 500 g/ha (ORYSA; [1]) [%] | plant injury at 2 g/ha (ORYSA; [2]) [%] | plant injury at 8 g/ha (ORYSA; [2]) [%] | plant injury at 31 g/ha (ORYSA; [2]) [%] | plant injury at 125 g/ha (ORYSA; [2]) [%] | plant injury at 500 g/ha (ORYSA; [2]) [%] | other results
1 | CCC(=NOCC=CCl)C1=C(O)CC(c2c(C)c(C)c3c(c2C)CC(C)(CC)C3)CC1=O (stereo not drawn) [Compound 14] | 30 | 70 | 100 | 100 | 100 | 0 | 0 | 0 | 30 | 100 | 0 | 0 | 0 | 0 | 40 | 0 | 0 | 0 | 40 | 100 | pest or weed control at 2 g/ha (SAGPY): 0%; pest or weed control at 8 g/ha (SAGPY): 0%; pest or weed control at 31 g/ha (SAGPY): 0%; pest or weed control at 125 g/ha (SAGPY): 0%; pest or weed control at 500 g/ha (SAGPY): 30%; pest or weed control at 2 g/ha (SCPJU): 0%; pest or weed control at 8 g/ha (SCPJU): 0%; pest or weed control at 31 g/ha (SCPJU): 0%; pest or weed control at 125 g/ha (SCPJU): 30%; pest or weed control at 500 g/ha (SCPJU): 90%
2 | CCCC(=NOCC=CCl)C1=C(O)CC(c2c(C)c(C)c3c(c2C)CC(C)(CC)C3)CC1=O (stereo not drawn) [Compound 19] | 0 | 50 | 80 | 100 | 100 | 0 | 0 | 0 | 0 | 0 | 0 | 0 | 0 | 0 | 0 | 0 | 0 | 0 | 0 | 30 | pest or weed control at 2 g/ha (SAGPY): 0%; pest or weed control at 8 g/ha (SAGPY): 0%; pest or weed control at 31 g/ha (SAGPY): 0%; pest or weed control at 125 g/ha (SAGPY): 0%; pest or weed control at 500 g/ha (SAGPY): 0%; pest or weed control at 2 g/ha (SCPJU): 0%; pest or weed control at 8 g/ha (SCPJU): 0%; pest or weed control at 31 g/ha (SCPJU): 0%; pest or weed control at 125 g/ha (SCPJU): 0%; pest or weed control at 500 g/ha (SCPJU): 0%
3 | CCCC(=NOC)C1=C(O)CC(c2c(C)c3c(c(C)c2Cl)CC(C)(C)C3)CC1=O (stereo not drawn) [Compound 25] | 0 | 0 | 100 | 100 | 100 | 0 | 0 | 0 | 0 | 0 | 0 | 0 | 0 | 0 | 50 | 0 | 0 | 60 | 100 | 100 | pest or weed control at 2 g/ha (SAGPY): 0%; pest or weed control at 8 g/ha (SAGPY): 0%; pest or weed control at 31 g/ha (SAGPY): 0%; pest or weed control at 125 g/ha (SAGPY): 0%; pest or weed control at 500 g/ha (SAGPY): 0%; pest or weed control at 2 g/ha (SCPJU): 0%; pest or weed control at 8 g/ha (SCPJU): 0%; pest or weed control at 31 g/ha (SCPJU): 0%; pest or weed control at 125 g/ha (SCPJU): 0%; pest or weed control at 500 g/ha (SCPJU): 0%
4 | CCC(=NOC)C1=C(O)CC(c2c(C)c(C)c3c(c2Cl)CC(C)(C)C3)CC1=O (stereo not drawn) [Compound 38] | 0 | 95 | 100 | 100 | 100 | 0 | 0 | 0 | 0 | 0 | 0 | 0 | 0 | 50 | 100 | 0 | 20 | 100 | 100 | 100 | pest or weed control at 2 g/ha (SAGPY): 0%; pest or weed control at 8 g/ha (SAGPY): 0%; pest or weed control at 31 g/ha (SAGPY): 0%; pest or weed control at 125 g/ha (SAGPY): 0%; pest or weed control at 500 g/ha (SAGPY): 0%; pest or weed control at 2 g/ha (SCPJU): 0%; pest or weed control at 8 g/ha (SCPJU): 0%; pest or weed control at 31 g/ha (SCPJU): 0%; pest or weed control at 125 g/ha (SCPJU): 0%; pest or weed control at 500 g/ha (SCPJU): 0%
5 | C=CCON=C(CCC)C1=C(O)CC(c2c(C)c3c(c(C)c2Cl)CC(C)(C)C3)CC1=O (stereo not drawn) [Compound 27] | 0 | 0 | 50 | 100 | 100 | 0 | 0 | 0 | 0 | 0 | 0 | 0 | 0 | 0 | 0 | 0 | 0 | 0 | 100 | 100 | pest or weed control at 2 g/ha (SAGPY): 0%; pest or weed control at 8 g/ha (SAGPY): 0%; pest or weed control at 31 g/ha (SAGPY): 0%; pest or weed control at 125 g/ha (SAGPY): 0%; pest or weed control at 500 g/ha (SAGPY): 0%; pest or weed control at 2 g/ha (SCPJU): 0%; pest or weed control at 8 g/ha (SCPJU): 0%; pest or weed control at 31 g/ha (SCPJU): 0%; pest or weed control at 125 g/ha (SCPJU): 0%; pest or weed control at 500 g/ha (SCPJU): 0%
6 | CCC(=NOCC=CCl)C1=C(O)CC(c2c(C)c(C)c3c(c2C)CC(C)(C)C3)CC1=O (stereo not drawn) [Compound 4] | 0 | 100 | 100 | 100 | 100 | 0 | 0 | 0 | 0 | 0 | 0 | 0 | 0 | 10 | 40 | 0 | 0 | 100 | 100 | 100 | pest or weed control at 2 g/ha (SAGPY): 0%; pest or weed control at 8 g/ha (SAGPY): 0%; pest or weed control at 31 g/ha (SAGPY): 0%; pest or weed control at 125 g/ha (SAGPY): 0%; pest or weed control at 500 g/ha (SAGPY): 50%; pest or weed control at 2 g/ha (SCPJU): 0%; pest or weed control at 8 g/ha (SCPJU): 0%; pest or weed control at 31 g/ha (SCPJU): 0%; pest or weed control at 125 g/ha (SCPJU): 0%; pest or weed control at 500 g/ha (SCPJU): 0%

From US6096930A, “Herbicidal cyclohexane-1,3-dione derivatives and their preparation process” (Korea Research Institute of Chemical Technology, priority 1994, dated 2000)
